Tests used:
Assay type in all cases: cell-based, mouse
[1] = tested on: FGFR3^K650M transfected NIH3T3 cells; experiment: [3H]-thymidine incorporation in NIH3T3 cells expressing FGFR3^K650M; conditions: A31 2 mM
Procedure: NIH-3T3 clones stably expressing FGFR3^+/+ (WT) and FGFR3^Y373C, FGFR3K650M (human constructs) were used. The stable clones were selected with G418. NIH-3T3 clones were incubated for 8 h in 10% newborn calf serum DMEM supplemented or not with A31 (2 mM). [3H] thymidine was added at a concentration of […] and incubated for 16 hours. The cells were harvested on glass fiber filter paper and assayed for radioactivity by liquid scintillation counting. The inventors used Top Count Microplates scintillation counter (Perkin Elmer).
To determine whether A31 modulates the mitogenic activity of activated FGFR3, the inventors measured [3H]-thymidine incorporation in FGFR3^Y373C and FGFR3^K650M transfected NIH3T3 cells. The mitogenic activity was increased in cells expressing FGFR3 mutations compared to WT (FGFR3^Y373C, 9927±2921 cpm; FGFR3^K650M, 15048±5251 cpm; WT, 7499±1667 cpm; p<10^−5 versus WT).

cyclin D1 = experiment: Cyclin D1 immunoblot in costal primary chondrocytes from E16.5 ribs; conditions: A31-treated murine chondrocytes vs untreated
Procedure: (§1) Six sets of ex vivo experiments were performed. Femur embryos at day E16.5 from WT (n=6) and Fgfr3^Y367C/+ (n=6) mice were used and incubated for 5 days in DMEM medium with antibiotics and 0.2% BSA (Sigma) supplemented with A31 or PD173074 (as control) at a concentration of 2 mM. Right femur was cultured in supplemented medium and compared with the left one cultured in control medium. Rib cage from E16.5 WT and Fgfr3^Y367C/+ mice embryos were isolated and stripped of all soft tissues. Primary chondrocytes were obtained from rib cages. The ribs were incubated in a pronase solution (Roche; 2 mg/ml) followed by a digestion in Collagenase A (Roche; 3 mg/ml) at 37° C. […] To establish the effect of the inhibitors, the right femur was cultured in supplemented medium and compared with the left one cultured in control medium The bone length was measured at the beginning (before treatment) and at the end of time course. […] The genotype of WT, Fgfr3^Y367C/+ and Fgfr3^−/− mice were determined by PCR of tail DNA as previously described (Pannier et al., Biochim Biophys Acta, 1792: 140-147, 2009). […]
(§2) Immunoprecipitation were performed by incubating […] rabbit anti-FGFR3 (Sigma)/[…] protein with protein A-agarose (Roche). […] Bound proteins were detected by chemiluminescence (ECL, Amersham). The blots were rehybrididized with an antipan-actin antibody for quantification (Millipore). […]

Fgfr3 = Fgfr3 protein expression (immunohistochemistry of femurs, Western blot of costal primary chondrocytes); conditions: A31; data not shown
Procedure: as §1, §2

With `COc1cc(OC)cc(-c2cc3cnc(NCc4cn(CC5CCCN(C)C5)nn4)nc3nc2NC(=O)NC(C)(C)C)c1` (stereo not drawn) [Compound A31] the “[3H]-thymidine incorporation (DNA synthesis)” value [1] was 6281±2699 cpm, the “cyclin D1 level (Western blot)” value (cyclin D1) was “reduced level of cyclin D1” and the “Fgfr3 expression in mutant femurs (immunohistochemical staining)” value (Fgfr3) was “large decrease of Fgfr3 expression”.

— patent US11357778B2, “Antagonist of the fibroblast growth factor receptor 3 (FGFR3) for use in the treatment or the prevention of skeletal disorders linked with abnormal activation of FGFR3” (INSTITUT NATIONAL DE LA SANTE ET DE LE RECHERCHE MEDICALE …, priority 2011, dated 2022)
